Results reported in patent US7402575B2, “Methods of treating inflammation” (priority 2003, dated 2008).
Entries after “also recorded” stand apart in the source; their conditions may differ.

Tests used:
E. coli sepsis in dogs = experiment: Pretreatment Study: TAC given before E. coli sepsis, hemodynamics; type: in vivo, dog; details: for Arterial pH / HR / Hct / Pwp / SVR: mean±SE, n=6
Procedure: In all of the studies outlined, the animals were randomized into treatment and nontreatment placebo groups (see below). The E. coli model used in these studies was identical to that previously described (6). Sepsis was induced by the intravenous infusion of 10^10 colony forming units of live E. coli (designation 011:B4). The bacteria were suspended in normal saline solution and were given over 0.5 hour. A constant infusion of approximately 5×10^9 colony forming units/hour of E. coli was then maintained for the remainder of the experiment.
The animals (16-24 kg) were initially anesthetized with thiopental sodium (20 mg/kg, intravenously) and constantly infused with sufentanil citrate (1 ug/min) and midazolam (5 ug/kg/min) (33). Drug rates were adjusted as required to abolish the palpebral reflex. The animals were placed in the supine position; the trachea was intubated with an endotracheal tube; and the lungs were mechanically ventilated at a tidal volume of 20 ml/kg. The ventilator rate was initially set to maintain blood pH at approximately 7.35 and was increased as necessary to reverse the metabolic acidosis that developed over the course of the study. Approximately 100% oxygen was inspired, so that hypoxemia would not affect the results of the study.
Under sterile conditions, the right jugular vein was percutaneously cannulated with an introducer (Arrow International, Reading, Pa.). A thermister tipped catheter was advanced from the jugular vein into the pulmonary artery to measure mean pulmonary arterial pressure (Ppa), mean pulmonary capillary wedge pressure (Pwp), mean right atrial pressure (Pra), thermodilution cardiac output (CO, Columbus Instruments, OH), and to obtain mixed venous oxygen blood samples. Another introducer was placed into the left jugular vein for administration of intravenous saline solution and the treatment or placebo drug (see below). A polyethylene catheter was also percutaneously placed into the femoral artery to measure mean blood pressure (MAP), and to obtain samples of blood for blood gas analysis, blood hematocrit (Hct), lactate concentrations, and blood cultures in some cases. Lactate was measured by an automated lactate dehydrogenase based assay (34) and was performed only in ETS and LTS because of equipment difficulties in the Pretreatment Study.
All catheters were connected to transducers (Cobe Laboratories), were referenced relative to the left atrium and were connected to a chart recorder (Astro-Med, W Warwick, R.I.). Heart rate (HR) was measured from the recorder tracing. Stroke-volume (SV) was calculated as CO/HR. Systemic vascular resistance (SVR) was calculated from [(MAP-Pra)/CO]×80. At each measurement interval (see below), a full set of measurements included MAP, CO, Ppa, Pra, Pwp, Hct, HR, SV, and arterial and mixed venous blood samples.
In the analysis, stroke work (SW) was the primary index of cardiac performance and the primary hemodynamic endpoint chosen in the in vivo studies (35,18) (see Discussion). At constant preload, SW reflects both the decreases in afterload and the changes in contractile function that accompany sepsis. SW was determined at approximately the same Pwp at each measurement interval. The baseline Pwp usually averaged ≈8-10 mmHg, and normal saline solution was given as necessary to maintain Pwp constant over the experimental period. SW was calculated from SV (MAP-Pwp).
Pretreatment Study. In the Pretreatment Study, TAC was given before the bacteria were infused. Based on previous studies, it takes approximately 3 to 4 hours of constant bacteremia in order for myocardial depression to develop in this model (6,18). A three to five hour course of bacteremia was therefore considered necessary to determine if TAC could block the decline in SW observed at this interval. […]

[1] = Plasma concentrations of TAC in the previous in vivo experiments; parameters: species or system dog; details: in vivo experiments of Example 2; printed as low 10^−5M range
Procedure: The dose of TAC used in the Pretreatment Study was based on calculations previously obtained from the ventricular trabecular experiments in which it was estimated that a plasma concentration of at least 10^−5M would be required to inhibit lysozyme's depressant activity in vivo (49). Based on the molecular weight of TAC (628 MW), the average size of the dog (20 kg), and the estimated distribution space of approximately 50% of total body weight, the dose chosen was 100 mg (Sigma Corp, Canada, Oakville, Ontario) mixed in 200 ml 5% dextrose in water (D5W) that was given intravenously over 0.5 hr. After this initial dose, a dose of 50 mg mixed in 50 ml D5W was continuously infused over each hour for the remainder of the study. The placebo group received an identical amount of D5W over the course of the study.
In the present study, the inventors examined whether the administration of chitobiose after 3.5 hrs of E. coli sepsis at a relatively high dose could reverse the myocardial depression that develops in this model.

[2] = immediately after TAC infusion, before sepsis

In the case of `CC(=O)N[C@H]1[C@H](O[C@H]2[C@H](O)[C@@H](NC(C)=O)C(O)O[C@@H]2CO)O[C@H](CO)[C@@H](O[C@@H]2O[C@H](CO)[C@@H](O)[C@H](O)[C@H]2NC(C)=O)[C@@H]1O` (some centres unmarked) [TAC, N,N′,N″ triacetylglucosamine], the “CO after pretreatment, before sepsis” value (E. coli sepsis in dogs) is reported as “no significant effect on CO”, the “CO at the 3 h period vs baseline” value (E. coli sepsis in dogs) is reported as “CO increased further at the 3 h period” and the “MAP after treatment, before sepsis” value (E. coli sepsis in dogs) is reported as “no effect on baseline MAP”. For the same compound, the “MAP at the 5 hour period vs nontreated group” value (E. coli sepsis in dogs) was “significantly prevented the decrease in MAP; also recorded: significant increases”, the “SV, change between baseline and 5 h vs nontreated group” value (E. coli sepsis in dogs) was “significantly different between the treated and nontreated groups; also recorded: significant increases” and the “SW, change between baseline and 5 h vs nontreated group” value (E. coli sepsis in dogs) was “significantly different between the treated and nontreated groups; also recorded: significant increases”. For the same compound, the “Arterial pH” value (E. coli sepsis in dogs; 3 h postsepsis) was 7.25 ± .001, the HR (E. coli sepsis in dogs; 3 h postsepsis) was 105 ± 5 beats/min and the Hct (E. coli sepsis in dogs; 3 h postsepsis) was 28 ± 2%. The Pwp (E. coli sepsis in dogs; 3 h postsepsis) was 9 ± .9 mmHg, the SVR (E. coli sepsis in dogs; 3 h postsepsis) was 1272 ± 221 dynes s cm^−5 and the “Arterial pH” value (E. coli sepsis in dogs; 5 h postsepsis) was 7.22 ± 0.1. The HR (E. coli sepsis in dogs; 5 h postsepsis) was 90 ± 5 beats/min, the Hct (E. coli sepsis in dogs; 5 h postsepsis) was 26 ± 3% and the Pwp (E. coli sepsis in dogs; 5 h postsepsis) was 9.6 ± .9 mmHg. The SVR (E. coli sepsis in dogs; 5 h postsepsis) was 1504 ± 249 dynes s cm^−5, the “Arterial pH” value (E. coli sepsis in dogs; baseline before TAC) was 7.35 ± .01 and the HR (E. coli sepsis in dogs; baseline before TAC) was 74 ± 11 beats/min. For the same compound, the Hct (E. coli sepsis in dogs; baseline before TAC) was 33 ± 1%, the Pwp (E. coli sepsis in dogs; baseline before TAC) was 9.3 ± .8 mmHg and the SVR (E. coli sepsis in dogs; baseline before TAC) was 2472 ± 320 dynes s cm^−5. For the same compound, the “Arterial pH” value (E. coli sepsis in dogs; [2]) was 7.28 ± .01, the HR (E. coli sepsis in dogs; [2]) was 78 ± 5 beats/min and the Pwp (E. coli sepsis in dogs; [2]) was 10.4 ± 1 mmHg. The SVR (E. coli sepsis in dogs; [2]) was 1872 ± 320 dynes s cm^−5 and the “Plasma concentrations of TAC” value [1] was ~10^−5 M.
